Marks after values point to notes of the source that are not given here. Peptide text beside a SMILES is read from it.
Tests used:
RXR-alpha LBD = target: T1, RXR-alpha LBD (Homo sapiens, UniProt P19793); assay: Experiment 4B binding to RXR-alpha LBD; details: 100 ng/well protein; 800 ng/well SA488-labelled peptide, 2 hours
T1 construct: purchased Abcam, Cambridge, MA
T1 sequence (P19793 227-458 limits assumed): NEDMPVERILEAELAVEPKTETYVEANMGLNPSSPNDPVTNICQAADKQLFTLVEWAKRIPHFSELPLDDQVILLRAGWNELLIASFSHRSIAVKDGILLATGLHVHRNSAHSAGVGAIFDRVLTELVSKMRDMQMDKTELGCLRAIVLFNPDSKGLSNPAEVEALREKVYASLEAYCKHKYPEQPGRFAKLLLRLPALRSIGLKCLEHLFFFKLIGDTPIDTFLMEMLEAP
Description: Experiment 4B. Binding of immodulin peptides to RXR isoforms and domains. 100 ng/well recombinant human RXRa-DBD or RXRa-LBD, or 400 ng/well full length RXR-alpha, RXR-beta, RXR-gamma or PPAR-gamma (Abcam, Cambridge, MA) was adsorbed to wells of a 96-well plate for 60 minutes at room temperature, then blocked with 200 uL 1% BSA in PBS buffer overnight. The plate was washed with PBS and 800 ng/well Streptavidin-Alexa 488 conjugate (SA488)-labelled peptide was added. The plate was incubated for 2 hours at room temperature, washed and counted in a fluorometer (excitation/emission 485/525 nm). Significant binding above background is also shown (**p<0.05). […] When tested against domains of RXR-alpha, these peptides bind the DNA-binding domain (DBD) better than the ligand-binding domain (LBD).

[1] = Experiment 4D binding to FITC-labelled heparin; details: biotinylated peptide 1 ug/well; 1 ug FITC-labelled heparin, 90 minutes
Method in brief: (§1)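 Biotinylated peptides (1 ug/well) bound to streptavidin plates for 60 min at room temperature, then 1 ug FITC-labelled heparin or hyaluronic acid in PBS added for 90 min at room temperature, in quadruplicate. After washes, fluorescence read at 488/525 nm and counts normalized to immX3 peptide binding = 100.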

[2] = Experiment 4D binding to FITC-labelled hyaluronic acid; details: biotinylated peptide 1 ug/well; 1 ug FITC-labelled hyaluronic acid, 90 minutes
Method in brief: as §1

[3] = target: T2, AA111-228 DNA-binding domain of RXR-alpha (RXRa-DBD) (Homo sapiens, UniProt P19793); assay: Experiment 4A binding to RXRa-DBD; details: 1 ug/well RXRa-DBD; 800 ng/well SA488-labelled peptide, 60 min; background subtracted
T2 construct: purchased Abcam, Cambridge, MA
T2 sequence (P19793 111-228): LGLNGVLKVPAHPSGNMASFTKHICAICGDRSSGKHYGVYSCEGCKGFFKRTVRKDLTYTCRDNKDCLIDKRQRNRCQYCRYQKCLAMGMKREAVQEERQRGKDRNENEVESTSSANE
Description: Experiment 4A. Binding of immodulin peptides to AA111-228 DNA-binding domain of RXR-alpha (RXRa-DBD). 1 ug/well recombinant RXRa-DBD (Abcam, Cambridge, MA) was adsorbed to wells of a 96-well plate for 60 minutes at room temperature, then blocked with 200 uL 1% bovine serum albumin (BSA) in PBS buffer overnight. Plate was washed and 800 ng/well Streptavidin-Alexa 488 conjugate (SA488)-labelled immX peptide was added. The plate was incubated for 60 min at room temperature, washed and counted in a standard fluorometer (excitation/emission 485/525 nm). Background (buffer alone) was subtracted.

[4] = Ferric iron-binding assay of biotinylated immodulin peptides; details: N-terminally biotinylated peptide, 400 ng per well, 60 min room temperature; immX3AVD = 100
Method in brief: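 N-terminally biotinylated peptides (400 ng/well) were tested for ferric iron binding in two formats: streptavidin-A488 complexes on Fe3+-charged NTA plates, or streptavidin-captured peptide probed with FITC-NTA·Fe3+. Each step was 60 min at room temperature with fluorescence read at 525 nm. Values are normalized to immX3AVD control (100) and averaged across both protocols.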

[5] = test system: HFF-1 human fibroblast cell line; assay: Collagen-1 ELISA in HFF-1 dermal fibroblasts; assay type: cell-based; details: peptide 2 uM, 72 hour incubation
Description: Immodulin peptides have potential untility in the field of cosmetics. HFF-1 human fibroblast cell line was obtained from the American Type Culture Collection (ATCC). Cells were grown in a T-75 flask in DMEM Medium containing 10% fetal bovine serum and penicillin-streptomycin at 37° C. in a humidified, 5% CO2 incubator. Cells (100 µl, 2,000 cells/well) were plated in a 96-well plate and incubated overnight at 37° C. in a humidified, 5% CO2 incubator. Next day, 10 µl/well of compounds were added (quadruplicate wells). After 72 hour incubation with the compound, supernatants were collected for Collagen-1 ELISA assay and cell viability was measured in a luminometer after the addition of 100 IL/well CellTiterGlo reagent (Promega Inc, Madison, WI) as recommended by the manufacturer. Collagen stimulating activity of immodulin peptides in HFF-1 dermal fibroblasts: Peptides were added to cells at 2 uM. COL1 immunoreactivity was measured in the supernatants of cultured cells by ELISA using a rabbit monoclonal anti-COL1 primary antibody (Abcam, Cambridge, MA). Control (buffer) value of immunoreactivity was set to 100.

N=C(N)NCCC[C@H](NC(=O)CNC(=O)[C@H](CCCCN)NC(=O)[C@H](CO)NC(=O)[C@@H]1CCCN1C(=O)[C@H](CCCNC(=N)N)NC(=O)[C@H](CS)NC(=O)[C@H](CCC(N)=O)NC(=O)[C@H](CCCCN)NC(=O)[C@H](CCCCN)NC(=O)[C@H](CCCCN)NC(=O)[C@H](Cc1ccc(O)cc1)NC(=O)[C@H](Cc1ccccc1)NC(=O)CNC(=O)[C@H](CCCCN)NC(=O)[C@@H](N)CCCCN)C(=O)N[C@@H](CCCCN)C(=O)N[C@@H](CCCNC(=N)N)C(=O)NCC(=O)N[C@@H](Cc1ccccc1)C(=O)N[C@@H](CS)C(=O)N[C@@H](Cc1c[nH]c2ccccc12)C(=O)O [imm3] (H-KKGFYKKKQCRPSKGRKRGFCW-OH; N-terminus and C-terminus assumed)
Binding to RXR-alpha LBD relative to imm3 binding (=100) (RXR-alpha LBD): 0.6 ± 1.5
Heparin binding, counts normalized for immX3 peptide binding=100 [1]: 104.2 ± 22.0
Hyaluronate binding, counts normalized for immX3 peptide binding=100 [2]: 57.2 ± 5.7**
Fluorescence, binding to RXRa-DBD [3]: 6,572±129
Ferric iron binding, fluorescence standardized to immX3AVD control peptide (100), Avg ± SD [4]: 66.7 ± 4.7**
COL1 immunoreactivity in supernatants, control (buffer) set to 100 [5]: 101

CC(C)C[C@H](NC(=O)[C@H](C)NC(=O)[C@@H]1CCCN1C(=O)[C@H](Cc1c[nH]cn1)NC(=O)[C@H](CS)NC(=O)[C@H](CCC(N)=O)NC(=O)[C@H](CCCCN)NC(=O)[C@@H]1CCCN1C(=O)[C@H](Cc1c[nH]cn1)NC(=O)[C@H](Cc1ccccc1)NC(=O)[C@H](CC(N)=O)NC(=O)CNC(=O)[C@H](CC(N)=O)NC(=O)[C@@H](N)CCCNC(=N)N)C(=O)N[C@@H](CC(=O)O)C(=O)NCC(=O)N[C@@H](CCC(N)=O)C(=O)N[C@@H](CCCNC(=N)N)C(=O)NCC(=O)N[C@@H](CCCCN)C(=O)N[C@@H](CS)C(=O)N[C@@H](Cc1c[nH]c2ccccc12)C(=O)O [imm4] (H-RNGNFHPKQCHPALDGQRGKCW-OH; N-terminus and C-terminus assumed)
Binding to RXR-alpha LBD relative to imm3 binding (=100) (RXR-alpha LBD): 3.0 ± 1.3
Heparin binding, counts normalized for immX3 peptide binding=100 [1]: 6.8 ± 24.1
Hyaluronate binding, counts normalized for immX3 peptide binding=100 [2]: 14.6 ± 22.6
Fluorescence, binding to RXRa-DBD [3]: 27±31
Ferric iron binding, fluorescence standardized to immX3AVD control peptide (100), Avg ± SD [4]: 3.3 ± 1.5**
COL1 immunoreactivity in supernatants, control (buffer) set to 100 [5]: 105

CC[C@H](C)[C@H](NC(=O)CNC(=O)[C@H](CCCNC(=N)N)NC(=O)[C@H](CCCCN)NC(=O)[C@H](CCCNC(=N)N)NC(=O)CNC(=O)[C@H](CCCNC(=N)N)NC(=O)[C@H](CO)NC(=O)[C@@H]1CCCN1C(=O)[C@H](CCCCN)NC(=O)[C@H](CS)NC(=O)[C@H](CCC(N)=O)NC(=O)[C@H](CCCCN)NC(=O)[C@H](CCCNC(=N)N)NC(=O)[C@H](CCCCN)NC(=O)[C@H](Cc1ccc(O)cc1)NC(=O)[C@H](Cc1ccccc1)NC(=O)CNC(=O)[C@H](CCCCN)NC(=O)[C@@H](N)CCCNC(=N)N)C(=O)N[C@@H](CS)C(=O)N[C@@H](Cc1c[nH]c2ccccc12)C(=O)O [imm5] (H-RKGFYKRKQCKPSRGRKRGICW-OH; N-terminus and C-terminus assumed)
Binding to RXR-alpha LBD relative to imm3 binding (=100) (RXR-alpha LBD): 1.8 ± 1.9
Heparin binding, counts normalized for immX3 peptide binding=100 [1]: 95.1 ± 25.7
Hyaluronate binding, counts normalized for immX3 peptide binding=100 [2]: 60.0 ± 8.6**
Fluorescence, binding to RXRa-DBD [3]: 6,802±336
Ferric iron binding, fluorescence standardized to immX3AVD control peptide (100), Avg ± SD [4]: 71.6 ± 6.6**
COL1 immunoreactivity in supernatants, control (buffer) set to 100 [5]: 93

N=C(N)NCCC[C@H](NC(=O)[C@H](CCCNC(=N)N)NC(=O)[C@H](CCC(N)=O)NC(=O)CNC(=O)[C@H](CCC(N)=O)NC(=O)[C@H](CO)NC(=O)[C@H](CO)NC(=O)[C@H](CCCNC(=N)N)NC(=O)[C@H](CS)NC(=O)[C@H](CCC(N)=O)NC(=O)[C@H](CCCNC(=N)N)NC(=O)[C@H](CCCCN)NC(=O)[C@H](CCCNC(=N)N)NC(=O)[C@H](Cc1ccc(O)cc1)NC(=O)[C@H](Cc1ccccc1)NC(=O)CNC(=O)[C@H](CCCNC(=N)N)NC(=O)[C@@H](N)Cc1c[nH]cn1)C(=O)NCC(=O)N1CCC[C@H]1C(=O)N[C@@H](CS)C(=O)N[C@@H](Cc1c[nH]c2ccccc12)C(=O)O [imm6] (H-HRGFYRKRQCRSSQGQRRGPCW-OH; N-terminus and C-terminus assumed)
Binding to RXR-alpha LBD relative to imm3 binding (=100) (RXR-alpha LBD): 1.6 ± 1.4
Heparin binding, counts normalized for immX3 peptide binding=100 [1]: 97.2 ± 17.3
Hyaluronate binding, counts normalized for immX3 peptide binding=100 [2]: 44.9 ± 14.1**
Fluorescence, binding to RXRa-DBD [3]: 587±192
Ferric iron binding, fluorescence standardized to immX3AVD control peptide (100), Avg ± SD [4]: 65.9 ± 4.9**
COL1 immunoreactivity in supernatants, control (buffer) set to 100 [5]: 112

Source: patent US12410220B2, “Modulation of mammalian cell lineage by synthetic immodulins” (priority 2021, dated 2025)
